Assay results as given in ChEMBL document CHEMBL1201862, “PubChem BioAssay data set” (2004).
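48-hour exposure; five concentrations; linearly interpolated endpoints. GI50 marks 50% less growth.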 Activity calls are given as the source filed them. Cut-off read from the data, not from the text of the source: active = GI50 up to about 1.1 µM and inactive = higher.

What was measured:
Experiment in all cases: NCI-60 cell line screen, 48 h
[1] = test system: NCI-H522
[2] = test system: OVCAR-8
[3] = test system: IGROV-1
[4] = test system: M14
[5] = test system: U-251
[6] = test system: SNB-78
[7] = test system: RXF 393
[8] = test system: CCRF-CEM
[9] = test system: MOLT-4
[10] = test system: HOP-62
[11] = test system: DMS-114
[12] = test system: KM12
[13] = test system: HOP-92
[14] = test system: NCI-H23
[15] = test system: SK-OV-3
[16] = test system: HCT-116
[17] = test system: UO-31
[18] = test system: RXF 631
[19] = test system: SR
[20] = test system: DMS-273
[21] = test system: OVCAR-5
[22] = test system: TK-10
[23] = test system: A498
[24] = test system: SF-295
[25] = test system: NCI-H460
[26] = test system: SK-MEL-28
[27] = test system: SNB-19
[28] = test system: EKVX
[29] = test system: A549
[30] = test system: UACC-257
[31] = test system: SF-268
[32] = test system: HT-29
[33] = test system: HL-60
[34] = test system: UACC-62
[35] = test system: M19-MEL
[36] = test system: ACHN
[37] = test system: RPMI-8226
[38] = test system: OVCAR-3
[39] = test system: Malme-3M
[40] = test system: SNB-75
[41] = test system: SW-620
[42] = test system: DLD-1
[43] = test system: CAKI-1
[44] = test system: COLO 205
[45] = test system: K562
[46] = test system: SK-MEL-2
[47] = test system: NCI-H226
[48] = test system: LXFL 529
[49] = test system: 786-0
[50] = test system: OVCAR-4
[51] = test system: SN12C
[52] = test system: HCC 2998
[53] = test system: SF-539
[54] = test system: XF498
[55] = test system: SK-MEL-5
[56] = test system: LOX IMVI
[57] = test system: HOP-18
[58] = test system: HCT-15
[59] = test system: KM-20L2

In the case of `CCC1=CC2CC(C(=O)OC)C1(N(C)C)C2=O` (stereo unspecified), the GI50 [1] is reported as > 100 µM (inactive), the GI50 [2] is reported as > 100 µM (inactive) and the GI50 [3] is reported as > 100 µM (inactive). The GI50 [4] was > 100 µM (inactive), the GI50 [5] was > 100 µM (inactive) and the GI50 [6] was > 100 µM (inactive). The GI50 [7] was > 100 µM (inactive), the GI50 [8] was > 100 µM (inactive) and the GI50 [9] was > 100 µM (inactive). For the same compound, the GI50 [10] was > 100 µM (inactive), the GI50 [11] was > 100 µM (inactive) and the GI50 [12] was > 100 µM (inactive). For the same compound, the GI50 [13] was > 100 µM (inactive), the GI50 [14] was > 100 µM (inactive) and the GI50 [15] was > 100 µM (inactive). For the same compound, the GI50 [16] was > 100 µM (inactive), the GI50 [17] was > 100 µM (inactive) and the GI50 [18] was > 100 µM (inactive). The GI50 [19] was > 100 µM (inactive), the GI50 [20] was > 100 µM (inactive) and the GI50 [21] was > 100 µM (inactive). For the same compound, the GI50 [22] was > 100 µM (inactive), the GI50 [23] was > 100 µM (inactive) and the GI50 [24] was > 100 µM (inactive). For the same compound, the GI50 [25] was > 100 µM (inactive), the GI50 [26] was > 100 µM (inactive) and the GI50 [27] was > 100 µM (inactive). For the same compound, the GI50 [28] was > 100 µM (inactive), the GI50 [29] was > 100 µM (inactive) and the GI50 [30] was > 100 µM (inactive). The GI50 [31] was > 100 µM (inactive), the GI50 [32] was > 100 µM (inactive) and the GI50 [33] was > 100 µM (inactive). The GI50 [34] was > 100 µM (inactive), the GI50 [35] was > 100 µM (inactive) and the GI50 [36] was > 100 µM (inactive).

With `CCCCCCCCCCCCCCCCCC(=O)NCC(COP(=O)(O)O)OCC` (stereo unspecified) the GI50 [37] was > 100 µM (inactive), the GI50 [1] was 29.7 µM (inactive) and the GI50 [2] was 36.6 µM (inactive). The GI50 [38] was > 100 µM (inactive), the GI50 [3] was 49.9 µM (inactive) and the GI50 [39] was > 100 µM (inactive). For the same compound, the GI50 [4] was 77.1 µM (inactive), the GI50 [6] was 22.5 µM (inactive) and the GI50 [40] was 26.1 µM (inactive). The GI50 [8] was > 100 µM (inactive), the GI50 [9] was > 100 µM (inactive) and the GI50 [10] was 22 µM (inactive). For the same compound, the GI50 [11] was 33.6 µM (inactive), the GI50 [12] was 25 µM (inactive) and the GI50 [13] was 13.7 µM (inactive). For the same compound, the GI50 [41] was > 100 µM (inactive), the GI50 [42] was > 100 µM (inactive) and the GI50 [43] was 31.2 µM (inactive). The GI50 [14] was 14.1 µM (inactive), the GI50 [15] was 34.9 µM (inactive) and the GI50 [16] was 58.6 µM (inactive). The GI50 [44] was > 100 µM (inactive), the GI50 [45] was > 100 µM (inactive) and the GI50 [17] was 34.1 µM (inactive). The GI50 [18] was 25.8 µM (inactive), the GI50 [46] was 38.1 µM (inactive) and the GI50 [47] was 27.7 µM (inactive). The GI50 [48] was > 100 µM (inactive), the GI50 [19] was > 100 µM (inactive) and the GI50 [20] was 77.1 µM (inactive). The GI50 [49] was 30.7 µM (inactive), the GI50 [22] was 49.2 µM (inactive) and the GI50 [23] was 24.3 µM (inactive). For the same compound, the GI50 [50] was > 100 µM (inactive), the GI50 [51] was 22 µM (inactive) and the GI50 [24] was 18.5 µM (inactive). The GI50 [52] was > 100 µM (inactive), the GI50 [53] was 43.6 µM (inactive) and the GI50 [26] was > 100 µM (inactive). The GI50 [54] was 51.8 µM (inactive), the GI50 [27] was 47.2 µM (inactive) and the GI50 [28] was 46.3 µM (inactive). For the same compound, the GI50 [29] was 31.1 µM (inactive), the GI50 [30] was > 100 µM (inactive) and the GI50 [31] was 22.3 µM (inactive). For the same compound, the GI50 [32] was 68.7 µM (inactive), the GI50 [33] was > 100 µM (inactive) and the GI50 [34] was 54.3 µM (inactive). For the same compound, the GI50 [35] was > 100 µM (inactive) and the GI50 [55] was > 100 µM (inactive).

For `COc1ccc(/C=C/C(=O)c2sc(Nc3ccc([N+](=O)[O-])cc3)nc2C)cc1`, the GI50 [37] was 19.3 µM (inactive), the GI50 [1] was 18.2 µM (inactive) and the GI50 [2] was 39.1 µM (inactive). The GI50 [38] was 26 µM (inactive), the GI50 [3] was 66.5 µM (inactive) and the GI50 [39] was 47 µM (inactive). For the same compound, the GI50 [56] was 31.6 µM (inactive), the GI50 [5] was 65.2 µM (inactive) and the GI50 [6] was 46.2 µM (inactive). For the same compound, the GI50 [40] was 43.5 µM (inactive), the GI50 [7] was 23.1 µM (inactive) and the GI50 [8] was 25.6 µM (inactive). The GI50 [9] was 17.7 µM (inactive), the GI50 [10] was 64.1 µM (inactive) and the GI50 [11] was 31.3 µM (inactive). For the same compound, the GI50 [12] was 27.4 µM (inactive), the GI50 [13] was 20.8 µM (inactive) and the GI50 [41] was 42.3 µM (inactive). The GI50 [42] was 29.1 µM (inactive), the GI50 [43] was 40.2 µM (inactive) and the GI50 [14] was 26.5 µM (inactive). The GI50 [15] was > 100 µM (inactive), the GI50 [44] was 45.7 µM (inactive) and the GI50 [45] was 22.1 µM (inactive). For the same compound, the GI50 [17] was 25.4 µM (inactive), the GI50 [18] was 34.2 µM (inactive) and the GI50 [46] was 17.5 µM (inactive). For the same compound, the GI50 [20] was 41.1 µM (inactive), the GI50 [49] was 48.8 µM (inactive) and the GI50 [21] was > 100 µM (inactive). The GI50 [22] was 45.2 µM (inactive), the GI50 [23] was 83.8 µM (inactive) and the GI50 [57] was 78.2 µM (inactive). The GI50 [51] was 50.2 µM (inactive), the GI50 [24] was 23.3 µM (inactive) and the GI50 [52] was 27.5 µM (inactive). For the same compound, the GI50 [58] was 34.4 µM, the GI50 [53] was 59.7 µM (inactive) and the GI50 [25] was 44.6 µM (inactive). For the same compound, the GI50 [26] was 40.2 µM (inactive), the GI50 [27] was 35.3 µM (inactive) and the GI50 [28] was 43.9 µM (inactive). For the same compound, the GI50 [29] was 33 µM (inactive), the GI50 [59] was 48.6 µM (inactive) and the GI50 [31] was 34.8 µM (inactive). The GI50 [33] was 21.2 µM (inactive), the GI50 [34] was 29.9 µM (inactive) and the GI50 [35] was 53.1 µM (inactive). The GI50 [36] was 38.6 µM (inactive) and the GI50 [55] was 18.2 µM (inactive).
